The source of these data is ChEMBL document CHEMBL1201862, “PubChem BioAssay data set” (2004).

The structures appear in SMILES notation. Active and inactive are the calls of the source.

Assay [1] addresses T1, Carboxy-terminal domain RNA polymerase II polypeptide A small phosphatase 1 (Homo sapiens, UniProt Q9GZU7).
T1 sequence (Q9GZU7 whole entry): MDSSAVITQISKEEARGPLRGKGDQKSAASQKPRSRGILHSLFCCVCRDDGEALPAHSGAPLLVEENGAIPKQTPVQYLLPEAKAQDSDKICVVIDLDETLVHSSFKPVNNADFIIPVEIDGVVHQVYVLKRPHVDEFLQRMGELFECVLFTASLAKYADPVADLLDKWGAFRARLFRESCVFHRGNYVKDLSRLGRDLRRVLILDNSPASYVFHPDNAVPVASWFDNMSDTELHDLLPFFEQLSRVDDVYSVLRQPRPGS
The assay can be described thus: inhibitors of CTDSP1, concentration-response testing, biochemical assay, absorbance-based, actives from ultra-high-throughput screening (AID 540297). Format: functional.

Assay [2] concerns the target T2, Low molecular weight phosphotyrosine protein phosphatase (Homo sapiens, UniProt P24666). It counts as functional. The following applies: read-out: IC50_Mean.
Assay [3] has as its target T2, Low molecular weight phosphotyrosine protein phosphatase. It counts as functional. Particulars: read-out: IC50_Mean. The source holds these as a separate data set.
In assay [4] the target is T3, Tyrosine-protein phosphatase non-receptor type 22 (Homo sapiens, UniProt Q9Y2R2).
T3 sequence (Q9Y2R2 whole entry): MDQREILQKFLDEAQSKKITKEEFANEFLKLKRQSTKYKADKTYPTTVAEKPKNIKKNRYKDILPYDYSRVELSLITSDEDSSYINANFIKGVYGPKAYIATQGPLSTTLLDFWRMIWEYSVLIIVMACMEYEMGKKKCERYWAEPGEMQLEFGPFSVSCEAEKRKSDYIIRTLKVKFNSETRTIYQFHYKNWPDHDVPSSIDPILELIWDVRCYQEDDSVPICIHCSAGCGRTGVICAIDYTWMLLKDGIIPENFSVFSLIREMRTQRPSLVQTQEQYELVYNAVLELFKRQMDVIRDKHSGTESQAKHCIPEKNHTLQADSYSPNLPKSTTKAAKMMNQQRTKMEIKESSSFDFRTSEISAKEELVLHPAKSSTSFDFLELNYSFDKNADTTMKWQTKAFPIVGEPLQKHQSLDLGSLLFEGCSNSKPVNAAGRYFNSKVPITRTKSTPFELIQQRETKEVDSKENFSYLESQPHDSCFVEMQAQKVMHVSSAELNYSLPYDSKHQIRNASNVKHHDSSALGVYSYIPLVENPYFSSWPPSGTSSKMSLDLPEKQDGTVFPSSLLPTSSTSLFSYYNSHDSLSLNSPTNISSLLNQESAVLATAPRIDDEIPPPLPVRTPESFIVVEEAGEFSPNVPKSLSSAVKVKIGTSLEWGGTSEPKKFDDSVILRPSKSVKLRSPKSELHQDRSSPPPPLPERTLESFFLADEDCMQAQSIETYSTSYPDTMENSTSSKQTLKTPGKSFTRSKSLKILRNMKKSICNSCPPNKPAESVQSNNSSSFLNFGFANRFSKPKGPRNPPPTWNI
The assay can be described thus: LYP phosphatase inhibition for selectivity, dose response, selectivity assay for LMPTP inhibitor project, biochemical, fluorescence, LYP catalytic domain (AID 652006). It counts as functional. The following applies: read-out: IC50_Mean.

For assay [5], the system named is Vero. Nature of the assay: cells. It counts as functional, Chlorocebus sabaeus. The following applies: Chlorocebus sabaeus, Vero.
For assay [6], the target named is T4, Sentrin-specific protease 1 (Homo sapiens, UniProt Q9P0U3).
T4 sequence (Q9P0U3 whole entry): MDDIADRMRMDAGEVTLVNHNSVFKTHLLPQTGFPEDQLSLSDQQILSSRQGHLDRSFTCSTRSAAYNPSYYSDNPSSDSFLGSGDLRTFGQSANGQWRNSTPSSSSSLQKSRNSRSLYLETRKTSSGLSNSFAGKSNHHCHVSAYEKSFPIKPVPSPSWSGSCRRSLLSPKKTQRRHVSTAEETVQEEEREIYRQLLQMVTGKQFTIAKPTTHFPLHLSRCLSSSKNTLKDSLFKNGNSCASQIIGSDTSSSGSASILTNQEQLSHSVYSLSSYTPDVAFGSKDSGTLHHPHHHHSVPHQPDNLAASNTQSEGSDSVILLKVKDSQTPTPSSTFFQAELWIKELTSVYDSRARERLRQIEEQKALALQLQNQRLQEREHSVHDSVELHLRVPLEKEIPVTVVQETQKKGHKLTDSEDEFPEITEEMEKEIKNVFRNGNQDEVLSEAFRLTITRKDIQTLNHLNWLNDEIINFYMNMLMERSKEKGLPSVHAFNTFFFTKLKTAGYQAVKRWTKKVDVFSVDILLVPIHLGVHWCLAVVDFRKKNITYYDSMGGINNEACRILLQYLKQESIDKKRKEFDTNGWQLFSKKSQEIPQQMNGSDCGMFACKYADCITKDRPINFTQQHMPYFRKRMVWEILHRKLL
Nature of the assay: potency of human SENP1 inhibitors, dose response, biochemical, kinetic FRET (AID 651697). The following applies: read-out: IC50_Mean. Format: functional.

A short description of assay [7]: DNA binding of candidate compounds, dose response, artefact control for RAD54 inhibitor project, biochemical, fluorescence polarization, cherry-pick (AID 651673). Format: functional. (In fluorescence polarisation assays a small probe gives low polarisation when free and higher when bound to something large.)
The target in assay [8] is T4, Sentrin-specific protease 1. Nature of the assay: Dose response confirmation of small molecule inhibitors of the catalytic domain of the SUMO protease, SENP1 in a FRET assay. Particulars: read-out: IC50_Mean. Format: functional.
In assay [9] the target is T5, DNA repair and recombination protein RAD54-like (Homo sapiens, UniProt Q92698).
T5 sequence (Q92698 whole entry): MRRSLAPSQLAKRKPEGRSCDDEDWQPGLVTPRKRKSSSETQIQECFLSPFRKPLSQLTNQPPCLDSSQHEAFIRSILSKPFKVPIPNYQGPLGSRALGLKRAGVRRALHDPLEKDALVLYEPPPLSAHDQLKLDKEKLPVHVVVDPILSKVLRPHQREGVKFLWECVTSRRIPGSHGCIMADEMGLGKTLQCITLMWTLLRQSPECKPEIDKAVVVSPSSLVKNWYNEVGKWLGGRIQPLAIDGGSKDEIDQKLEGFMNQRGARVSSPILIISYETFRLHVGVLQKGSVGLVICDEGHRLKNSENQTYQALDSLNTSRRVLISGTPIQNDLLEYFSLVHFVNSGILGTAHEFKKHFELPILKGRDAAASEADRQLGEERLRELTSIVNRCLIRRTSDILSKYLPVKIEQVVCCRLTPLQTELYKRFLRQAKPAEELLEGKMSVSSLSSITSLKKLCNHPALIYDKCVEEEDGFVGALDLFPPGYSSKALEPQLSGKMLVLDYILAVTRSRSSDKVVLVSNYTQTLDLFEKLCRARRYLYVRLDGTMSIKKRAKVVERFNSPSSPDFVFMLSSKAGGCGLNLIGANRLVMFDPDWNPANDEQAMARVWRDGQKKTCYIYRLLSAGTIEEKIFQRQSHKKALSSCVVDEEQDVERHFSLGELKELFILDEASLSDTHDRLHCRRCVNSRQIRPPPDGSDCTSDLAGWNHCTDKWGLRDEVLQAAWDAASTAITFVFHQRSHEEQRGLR
The assay can be described thus: inhibitors of human RAD54 branch migration, confirmation, biochemical, fluorescence, cherry-picked samples, dose series (AID 651657). Format: functional.

The target in assay [10] is SWI/SNF-related matrix-associated actin-dependent regulator of chromatin subfamily A member 2 (Homo sapiens, UniProt P51531). Nature of the assay: Luminescence-based cell-based high throughput dose response assay to identify activators of the function of SWI/SNF related, matrix associated, actin dependent regulator of chromatin, subfamily a, member 2 (SMARCA2, BRM). It counts as functional.

The nature of assay [11]: Counterscreen for activators of the function of SWI/SNF related, matrix associated, actin dependent regulator of chromatin, subfamily a, member 2 (SMARCA2, BRM): Luminescence-based cell-based high throughput dose response assay to identify non-selective compounds using the VP16 reporter assay. It counts as functional.
Assay [12] addresses T6, DNA repair protein RAD52 homolog (Homo sapiens, UniProt P43351).
T6 sequence (P43351 whole entry): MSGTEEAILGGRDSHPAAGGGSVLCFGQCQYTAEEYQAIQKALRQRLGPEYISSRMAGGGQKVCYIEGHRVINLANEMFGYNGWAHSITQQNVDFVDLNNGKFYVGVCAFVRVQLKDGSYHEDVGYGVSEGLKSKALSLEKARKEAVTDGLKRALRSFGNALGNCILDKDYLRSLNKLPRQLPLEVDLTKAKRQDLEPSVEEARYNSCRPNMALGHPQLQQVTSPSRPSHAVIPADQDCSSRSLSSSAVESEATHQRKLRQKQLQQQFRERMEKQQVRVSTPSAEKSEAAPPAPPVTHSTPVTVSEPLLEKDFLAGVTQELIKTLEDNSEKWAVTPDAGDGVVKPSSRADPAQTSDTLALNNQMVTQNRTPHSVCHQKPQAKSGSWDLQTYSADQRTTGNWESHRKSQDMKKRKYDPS
It counts as functional, biochemical.

Assay [13] deals with Streptococcus sp. 'group A'. The assay can be described thus: growth inhibition of control SK(-) GAS strain, dose response, counter-screen for streptokinase expression inhibitor project, luminescence, kanamycin, BacTiterGlo, confirmation (AID 1900). It counts as functional, organism-based.
The nature of assay [14]: inhibitors of intracellular T. cruzi replication, confirmation, NIH3T3 host cells, beta-gal luminescence (AID 2044).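 Further: intracellular parasites grown in NIH/3T3 mouse fibroblasts as host cells; luminescent beta-galactosidase reporter signal from transgenic T. cruzi replicating inside host cells; inhibitors lower the luminescence signal.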 Format: functional, cell-based.
Assay [15] in a line: cytotoxicity toward NIH3T3 fibroblasts, dose response, counter-screen, cell-based, ATP luminescence, mouse fibroblasts (AID 2010).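 Further: cells exposed to compound for about 90 hours before reading.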 Format: functional. A general note: A counterscreen serves to expose hits that act by an unwanted route or on another target.
Assay [16] concerns Streptococcus. Nature of the assay: Group A Streptococcus viability loss, dose response, counter-screen for streptokinase expression inhibitor project, luminescence, BacTiterGlo (AID 1915).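 Further: potency for reduction of bacterial viability or growth.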 Format: functional, organism-based.
Assay [17] concerns the target Bcl-2-related protein A1 (Mus musculus, UniProt Q07440). Format: functional.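 Further: confirmatory dose–response counterscreen on Bfl-1, used to check hits from a UBC13 polyubiquitin inhibitor campaign.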
Assay [18] concerns the target T7, Ubiquitin-conjugating enzyme E2 N (Homo sapiens, UniProt P61088).
T7 sequence (P61088 whole entry): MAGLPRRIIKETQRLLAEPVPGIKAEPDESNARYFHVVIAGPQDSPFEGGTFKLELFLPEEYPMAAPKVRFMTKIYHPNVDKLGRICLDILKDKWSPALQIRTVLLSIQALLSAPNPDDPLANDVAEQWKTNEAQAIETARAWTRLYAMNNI
It counts as functional.

For assay [19], the target named is T7, Ubiquitin-conjugating enzyme E2 N. Format: functional. The source holds these as a separate data set.
Assay [20] can be described thus: MDA-MB-231 cell growth inhibition, dose response, cytotoxicity control for RAD54 inhibitor project, CellTiter-Glo luminescence, cherry-pick (AID 651692). It counts as functional, cell-based. A general note: In ATP-based viability assays light output follows the ATP content of the culture.

T2 sequence (P24666 whole entry): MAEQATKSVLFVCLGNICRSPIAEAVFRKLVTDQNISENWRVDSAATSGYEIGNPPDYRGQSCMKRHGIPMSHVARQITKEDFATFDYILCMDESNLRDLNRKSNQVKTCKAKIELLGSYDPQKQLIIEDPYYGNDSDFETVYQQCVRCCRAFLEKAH
Chain of SWI/SNF-related matrix-associated actin-dependent regulator of chromatin subfamily A member 2 (P51531 whole entry): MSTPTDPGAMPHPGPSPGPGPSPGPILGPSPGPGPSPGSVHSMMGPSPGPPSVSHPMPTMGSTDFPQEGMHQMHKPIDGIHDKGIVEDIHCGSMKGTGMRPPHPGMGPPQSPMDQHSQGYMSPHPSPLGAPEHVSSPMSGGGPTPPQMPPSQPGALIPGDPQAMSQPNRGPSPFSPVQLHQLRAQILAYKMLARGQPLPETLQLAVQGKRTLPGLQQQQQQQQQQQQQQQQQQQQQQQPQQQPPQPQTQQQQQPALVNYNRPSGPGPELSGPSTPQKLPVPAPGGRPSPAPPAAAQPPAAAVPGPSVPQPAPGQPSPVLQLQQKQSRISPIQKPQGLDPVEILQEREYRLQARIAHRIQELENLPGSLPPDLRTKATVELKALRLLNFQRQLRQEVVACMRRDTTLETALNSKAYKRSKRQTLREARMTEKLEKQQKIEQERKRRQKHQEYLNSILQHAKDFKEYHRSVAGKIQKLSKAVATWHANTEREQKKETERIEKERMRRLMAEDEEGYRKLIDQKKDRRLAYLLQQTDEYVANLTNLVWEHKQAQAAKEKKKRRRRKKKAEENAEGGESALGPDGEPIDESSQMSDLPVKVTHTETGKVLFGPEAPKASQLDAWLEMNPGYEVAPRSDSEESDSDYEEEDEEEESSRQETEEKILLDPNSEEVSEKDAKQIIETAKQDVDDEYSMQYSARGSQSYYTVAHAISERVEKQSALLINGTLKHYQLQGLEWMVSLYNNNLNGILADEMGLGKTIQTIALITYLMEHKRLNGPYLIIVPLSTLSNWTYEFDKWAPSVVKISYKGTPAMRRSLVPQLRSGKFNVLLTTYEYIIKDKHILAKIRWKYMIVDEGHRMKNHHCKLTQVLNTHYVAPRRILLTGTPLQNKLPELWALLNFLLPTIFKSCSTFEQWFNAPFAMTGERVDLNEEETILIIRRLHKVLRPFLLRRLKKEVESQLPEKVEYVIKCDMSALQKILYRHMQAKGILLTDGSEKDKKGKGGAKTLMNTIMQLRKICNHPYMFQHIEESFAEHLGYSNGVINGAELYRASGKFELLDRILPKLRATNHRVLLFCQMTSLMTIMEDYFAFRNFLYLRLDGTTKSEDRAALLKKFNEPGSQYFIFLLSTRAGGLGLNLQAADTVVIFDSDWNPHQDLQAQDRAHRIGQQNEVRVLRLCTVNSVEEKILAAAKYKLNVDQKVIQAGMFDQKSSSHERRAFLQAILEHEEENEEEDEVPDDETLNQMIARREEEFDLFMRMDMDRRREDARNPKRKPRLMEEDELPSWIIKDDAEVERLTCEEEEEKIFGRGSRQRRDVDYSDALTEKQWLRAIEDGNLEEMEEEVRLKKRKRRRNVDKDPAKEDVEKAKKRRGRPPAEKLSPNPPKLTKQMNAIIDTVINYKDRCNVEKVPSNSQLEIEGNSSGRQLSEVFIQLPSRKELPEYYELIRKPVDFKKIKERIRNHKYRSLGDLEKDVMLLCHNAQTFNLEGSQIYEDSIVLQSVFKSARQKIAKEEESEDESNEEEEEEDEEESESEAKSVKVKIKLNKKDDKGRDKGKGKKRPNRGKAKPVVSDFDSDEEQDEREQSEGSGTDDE
Chain of Bcl-2-related protein A1 (Q07440 whole entry): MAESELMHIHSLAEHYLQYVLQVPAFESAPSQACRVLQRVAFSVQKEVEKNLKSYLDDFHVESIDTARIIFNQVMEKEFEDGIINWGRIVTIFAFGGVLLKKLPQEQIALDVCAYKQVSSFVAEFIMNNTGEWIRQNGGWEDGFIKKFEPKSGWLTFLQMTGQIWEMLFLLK

As to `O=C(CCN1C(=O)/C(=C/c2ccc3c(c2)OCO3)SC1=S)Nc1ccc(C(=O)O)cc1`, the IC50 in assay [1] was 2.3 µM (active); in assay [2] it was 16.2 µM (active); in [3] it was 8.74 µM (active); in assay [4] it was 12.9 µM (active).

The term CC50 denotes the concentration at which the toxic effect on the cells reaches its halfway point. Usually AC50 stands for the concentration at which the activity in the assay is half-maximal. A word on the EC50: it is the concentration giving half of the maximal effect. Take `CCN(CC)CCNc1ccc(CO)c2oc3cc(Cl)ccc3c(=O)c12`: the cytotoxic concentration (CC50) in assay [5] was 16.7 µM (active). Further, the IC50 is 19.8 µM (active) in assay [6] and 24 µM (inactive) in [8]. The AC50 in assay [7] is 63.1 µM (active); in assay [9], 10.2 µM (active); in [12] it was 12.5 µM (active). The EC50 in [10] and in [11] was > 91.2 µM (inactive) throughout.

Consider `CN(C)CCCn1c(SCC(=O)Nc2nc(-c3cccc(Br)c3)cs2)nc2ccccc2c1=O`, for which the EC50 in assay [13] is 3.17 µM (active); in [14], 1.66 µM (active); in [15], 4.52 µM (active); in assay [16] it was 6.99 µM (active). Besides, the IC50 in assay [17] is 13.1 µM (active); in assay [18], 5.58 µM (active); in [19], 5.29 µM (active). Besides, the concentration at half-maximal activity (AC50) was 13.9 µM (active) in [20] and 95.9 µM (active) in [9].
